Results as given in ChEMBL document CHEMBL1201862, “PubChem BioAssay data set” (2004).
Calls of active or inactive are those of the source.

Key:
[1] = target: Glutathione-S-transferase (Schistosoma japonicum, UniProt Q26513); test: GST-antibody interaction or FRET quenching – biochemical, TR-FRET, artefact control for Vif-APOBEC3G degradation inhibitor project, dose response (AID 1117362); format: functional
[2] = loss of HEK293T viability via ATP – cell-based, plate reader, dry powder, set 10, cytotoxicity control, dose response (AID 743315); format: functional; details: HEK293
[3] = antifungal growth inhibition under osmotic support – sorbitol, alamar blue, dry powder, set 3, mechanism study for C. neoformans lysis project, dose response (AID 743304); format: functional, organism-based
[4] = TB: CFU replicating Measured in Microorganism System Using Imaging - 7108-05_Inhibitor_Dose_DryPowder_Activity_Set2.; format: functional
[5] = Dd2 parasite growth inhibition in erythrocytes – SYBR Green, dry powder samples, set 9, dose response (AID 1159568); format: functional, cell-based
[6] = antimalarial activity against Dd2 parasites – SYBR Green fluorescence, erythrocytes, dry powder, set 2, dose response (AID 1159574); format: functional, cell-based
[7] = inhibition of fibronectin matrix deposition – AH1F cells, Alexa488-fibronectin fluorescence, cherry-pick, set 2, dose response (AID 1117283); format: functional, cell-based
[8] = viability loss in A549 lung cancer cells – cell-based, cherry-picks, […], cytotoxicity control, dose response (AID 1053119); format: functional
[9] = P. falciparum Dd2 growth inhibitors, dose response, SYBR Green, cherry-picked samples (AID 1159567); format: functional, cell-based
[10] = toxicity to human hepatoma HepG2 cells – cell-based, cherry-picked samples, cytotoxicity control, dose response (AID 1159577); format: functional
[11] = RKO cell viability reduction, dose response, CellTiter-Glo luminescence (AID 1117322); format: functional
[12] = Reduced DLD-1 viability, concentration-response, CellTiter-Glo luminescence (AID 1117352); format: functional
[13] = cytotoxicity toward HCT116 cells – cell-based, CellTiter-Glo luminescence, IC50, dose response (AID 1117332); format: functional; details: HCT-116
[14] = cytotoxicity toward HT-29 cells – cell-based, CellTiter-Glo luminescence, IC50, dose response (AID 1117330); format: functional
[15] = CellTiter-Glo luminescence survival assay, SW480 colon tumor line, concentration-response curve, half-maximal inhibitory concentration (AID 1117338); format: functional
[16] = SNU-C1 cell viability reduction, dose response, CellTiter-Glo luminescence (AID 1117323); format: functional, cell-based
[17] = target: T1, Replicative DNA helicase DnaB (Mycobacterium tuberculosis, UniProt P9WMR3); test: DnaB intein splicing inhibitors, dose response, biochemical, cell-free fluorescence (AID 449749); format: functional
T1 sequence (P9WMR3 whole entry): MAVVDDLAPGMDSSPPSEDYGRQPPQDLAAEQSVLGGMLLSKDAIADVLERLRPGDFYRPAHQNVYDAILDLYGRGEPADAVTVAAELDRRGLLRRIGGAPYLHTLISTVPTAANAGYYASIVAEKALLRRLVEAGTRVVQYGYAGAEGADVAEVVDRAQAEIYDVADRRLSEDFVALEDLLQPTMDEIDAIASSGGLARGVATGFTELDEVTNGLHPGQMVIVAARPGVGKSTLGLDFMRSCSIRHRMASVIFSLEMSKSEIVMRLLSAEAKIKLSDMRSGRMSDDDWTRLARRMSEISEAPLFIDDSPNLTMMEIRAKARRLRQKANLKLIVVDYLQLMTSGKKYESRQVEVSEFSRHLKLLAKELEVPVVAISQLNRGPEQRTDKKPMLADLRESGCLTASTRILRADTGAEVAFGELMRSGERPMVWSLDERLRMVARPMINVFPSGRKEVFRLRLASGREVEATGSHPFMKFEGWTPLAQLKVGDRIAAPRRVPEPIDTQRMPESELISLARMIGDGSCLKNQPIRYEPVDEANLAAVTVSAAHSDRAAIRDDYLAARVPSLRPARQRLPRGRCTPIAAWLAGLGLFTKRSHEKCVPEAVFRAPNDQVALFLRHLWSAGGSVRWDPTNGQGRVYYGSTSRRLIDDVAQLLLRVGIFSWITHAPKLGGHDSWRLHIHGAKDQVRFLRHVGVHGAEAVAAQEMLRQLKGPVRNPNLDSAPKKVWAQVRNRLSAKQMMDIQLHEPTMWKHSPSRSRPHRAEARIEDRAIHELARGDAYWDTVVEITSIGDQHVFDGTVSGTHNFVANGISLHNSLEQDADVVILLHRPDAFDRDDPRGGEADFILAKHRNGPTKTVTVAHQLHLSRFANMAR

[18] = target: Bifunctional protein GlmU (Mycobacterium tuberculosis, UniProt P9WMN3); test: Inhibitors of Mycobacterial Glucosamine-1-phosphate acetyl transferase (GlmU). Secondary screen.; set-up: species or system Mycobacterium tuberculosis H37Rv
Sequence of Bifunctional protein GlmU (P9WMN3 whole entry): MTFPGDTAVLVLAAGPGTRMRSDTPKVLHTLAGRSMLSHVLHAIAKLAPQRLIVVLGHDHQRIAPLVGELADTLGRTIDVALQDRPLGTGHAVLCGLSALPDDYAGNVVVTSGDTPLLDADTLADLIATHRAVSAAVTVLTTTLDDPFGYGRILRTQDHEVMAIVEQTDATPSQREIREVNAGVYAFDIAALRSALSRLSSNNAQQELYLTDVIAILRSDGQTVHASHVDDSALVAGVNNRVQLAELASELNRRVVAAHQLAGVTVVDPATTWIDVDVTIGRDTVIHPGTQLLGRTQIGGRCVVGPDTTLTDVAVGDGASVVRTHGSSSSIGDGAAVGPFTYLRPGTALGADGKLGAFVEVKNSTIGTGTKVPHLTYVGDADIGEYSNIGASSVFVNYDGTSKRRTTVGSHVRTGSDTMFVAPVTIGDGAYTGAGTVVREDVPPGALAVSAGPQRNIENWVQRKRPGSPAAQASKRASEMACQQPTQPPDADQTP

[19] = target: T2, Protein RecA (Mycobacterium tuberculosis, UniProt P9WHJ3); test: Fluorescence Cell-Free Homogeneous Dose Retest to Identify Inhibitors of RecA-Intein Splicing Activity. [Related pubchem assays (depositor defined):AID2097, AID2223, AID489010, AID492950]; format: functional
T2 sequence (P9WHJ3 whole entry): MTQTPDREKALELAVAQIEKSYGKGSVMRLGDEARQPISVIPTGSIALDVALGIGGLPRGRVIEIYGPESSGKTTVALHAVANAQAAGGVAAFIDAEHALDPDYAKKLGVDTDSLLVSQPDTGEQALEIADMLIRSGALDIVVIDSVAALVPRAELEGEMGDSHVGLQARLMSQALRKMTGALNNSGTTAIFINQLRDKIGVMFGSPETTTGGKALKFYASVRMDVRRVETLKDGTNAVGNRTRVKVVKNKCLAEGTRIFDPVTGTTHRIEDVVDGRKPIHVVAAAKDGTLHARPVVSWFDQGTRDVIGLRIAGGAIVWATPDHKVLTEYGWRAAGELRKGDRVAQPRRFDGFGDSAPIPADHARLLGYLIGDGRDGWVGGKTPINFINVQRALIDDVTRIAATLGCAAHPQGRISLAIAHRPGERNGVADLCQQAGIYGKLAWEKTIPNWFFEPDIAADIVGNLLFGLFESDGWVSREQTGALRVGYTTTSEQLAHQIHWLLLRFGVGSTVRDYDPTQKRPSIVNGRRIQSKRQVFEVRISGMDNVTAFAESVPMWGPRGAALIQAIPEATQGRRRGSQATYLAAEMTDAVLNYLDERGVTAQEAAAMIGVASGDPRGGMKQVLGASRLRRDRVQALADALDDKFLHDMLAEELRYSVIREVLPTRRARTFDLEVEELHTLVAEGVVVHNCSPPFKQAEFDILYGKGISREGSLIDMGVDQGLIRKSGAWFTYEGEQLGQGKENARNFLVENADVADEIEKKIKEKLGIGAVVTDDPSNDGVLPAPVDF

[20] = target: T3, Aminopeptidase N (Plasmodium falciparum FcB1/Columbia, UniProt O96935); test: malaria alanyl aminopeptidase activity blockers – biochemical, fluorogenic H-Leu-NHMec substrate, 1536-well (AID 1445); set-up: species or system Plasmodium falciparum 3D7, 3D7
T3 sequence (O96935 whole entry): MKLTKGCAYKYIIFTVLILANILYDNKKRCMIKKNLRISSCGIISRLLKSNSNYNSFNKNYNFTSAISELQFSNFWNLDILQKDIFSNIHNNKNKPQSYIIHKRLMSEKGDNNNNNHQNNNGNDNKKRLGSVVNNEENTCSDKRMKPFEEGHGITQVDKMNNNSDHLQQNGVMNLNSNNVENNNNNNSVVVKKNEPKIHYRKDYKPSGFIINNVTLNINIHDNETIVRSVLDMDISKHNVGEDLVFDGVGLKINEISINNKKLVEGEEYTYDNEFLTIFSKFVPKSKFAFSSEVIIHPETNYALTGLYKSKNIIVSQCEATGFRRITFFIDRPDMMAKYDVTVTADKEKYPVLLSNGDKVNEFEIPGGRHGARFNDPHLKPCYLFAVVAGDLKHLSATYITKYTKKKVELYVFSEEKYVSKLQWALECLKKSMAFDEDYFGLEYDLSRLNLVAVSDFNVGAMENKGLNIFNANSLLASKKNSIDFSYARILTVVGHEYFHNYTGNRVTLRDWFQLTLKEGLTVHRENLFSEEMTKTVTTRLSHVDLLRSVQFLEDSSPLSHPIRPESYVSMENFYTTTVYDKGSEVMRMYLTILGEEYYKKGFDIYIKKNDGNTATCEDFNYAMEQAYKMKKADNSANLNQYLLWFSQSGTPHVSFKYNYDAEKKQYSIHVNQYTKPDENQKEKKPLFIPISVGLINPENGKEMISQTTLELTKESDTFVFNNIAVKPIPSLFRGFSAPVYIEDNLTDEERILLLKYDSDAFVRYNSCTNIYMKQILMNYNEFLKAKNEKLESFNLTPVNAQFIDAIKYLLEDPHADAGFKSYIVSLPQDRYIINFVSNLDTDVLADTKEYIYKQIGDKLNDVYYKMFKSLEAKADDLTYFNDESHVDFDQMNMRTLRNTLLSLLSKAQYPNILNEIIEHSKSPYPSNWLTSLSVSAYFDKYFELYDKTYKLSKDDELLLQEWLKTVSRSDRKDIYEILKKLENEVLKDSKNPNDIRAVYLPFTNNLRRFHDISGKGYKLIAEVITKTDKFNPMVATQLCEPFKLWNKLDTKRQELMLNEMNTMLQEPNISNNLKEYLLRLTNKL

[21] = target: Genome polyprotein (dengue virus type 2, UniProt P29990); test: flavivirus cap methylation enzyme inhibition – biochemical, confirmation dose response, primary screen (AID 588689); format: functional
Sequence of Genome polyprotein (P29990 2492-3391 limits assumed): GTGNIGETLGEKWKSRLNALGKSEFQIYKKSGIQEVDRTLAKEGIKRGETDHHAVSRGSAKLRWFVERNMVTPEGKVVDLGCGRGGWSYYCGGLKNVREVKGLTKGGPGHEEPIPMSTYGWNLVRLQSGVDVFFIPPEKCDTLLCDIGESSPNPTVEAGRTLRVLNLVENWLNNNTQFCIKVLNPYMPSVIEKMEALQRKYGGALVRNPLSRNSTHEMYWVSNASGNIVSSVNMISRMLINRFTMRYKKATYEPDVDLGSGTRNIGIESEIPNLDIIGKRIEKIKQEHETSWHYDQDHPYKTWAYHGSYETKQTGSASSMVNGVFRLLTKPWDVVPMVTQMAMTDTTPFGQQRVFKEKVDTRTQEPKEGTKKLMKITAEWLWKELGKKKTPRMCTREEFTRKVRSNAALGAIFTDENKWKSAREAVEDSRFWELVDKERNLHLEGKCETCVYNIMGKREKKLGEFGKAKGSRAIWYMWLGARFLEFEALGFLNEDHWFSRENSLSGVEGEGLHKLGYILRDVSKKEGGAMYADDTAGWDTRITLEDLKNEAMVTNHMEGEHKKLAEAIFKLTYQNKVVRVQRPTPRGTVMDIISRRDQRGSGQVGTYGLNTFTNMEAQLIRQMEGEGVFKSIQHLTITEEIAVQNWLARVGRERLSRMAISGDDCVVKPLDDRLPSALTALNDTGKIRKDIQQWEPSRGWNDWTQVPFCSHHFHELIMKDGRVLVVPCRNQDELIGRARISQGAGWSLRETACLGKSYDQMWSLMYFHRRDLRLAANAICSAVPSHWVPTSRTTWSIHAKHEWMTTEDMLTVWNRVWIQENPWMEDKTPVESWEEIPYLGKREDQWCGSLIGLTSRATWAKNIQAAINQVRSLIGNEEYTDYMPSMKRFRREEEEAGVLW

[22] = inhibitors of orthopox intermediate gene expression, dose response, cell-based, single fluorophore reporter, dry powder (AID 1117271); format: functional
[23] = Single fluorophore orthopox expression reporter, late gene expression Measured in Cell-Based and Microorganism Combination System Using Plate Reader - 2142-08_Inhibitor_Dose_DryPowder_Activity.; format: functional
[24] = lung carcinoma cell viability loss – CellTiter-Glo luminescence, dry powder, set 17, dose response (AID 1117284); format: functional, cell-based; details: A549
[25] = target: Eukaryotic translation initiation factor 4E (Mus musculus, UniProt P63073); test: blockers of eIF4G binding by eIF4E – biochemical, TR-FRET, dose response (AID 855); format: functional;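 also: potency for disrupting eIF4E binding to eIF4GI seen as loss of FRET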
Sequence of Eukaryotic translation initiation factor 4E (P63073 whole entry): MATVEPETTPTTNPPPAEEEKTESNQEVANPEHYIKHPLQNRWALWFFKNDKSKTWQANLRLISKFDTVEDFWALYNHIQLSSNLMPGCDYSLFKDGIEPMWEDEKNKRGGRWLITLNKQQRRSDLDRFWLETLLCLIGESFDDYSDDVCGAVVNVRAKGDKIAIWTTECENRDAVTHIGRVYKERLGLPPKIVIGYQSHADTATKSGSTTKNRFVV

[26] = target: Sphingosine 1-phosphate receptor 2 (Homo sapiens, UniProt O95136); test: Dose Response Cell Based Assay for Agonists of the S1P2 Receptor. [Related pubchem assays: 729, 736, 843 ]; format: functional
Sequence of Sphingosine 1-phosphate receptor 2 (O95136 whole entry): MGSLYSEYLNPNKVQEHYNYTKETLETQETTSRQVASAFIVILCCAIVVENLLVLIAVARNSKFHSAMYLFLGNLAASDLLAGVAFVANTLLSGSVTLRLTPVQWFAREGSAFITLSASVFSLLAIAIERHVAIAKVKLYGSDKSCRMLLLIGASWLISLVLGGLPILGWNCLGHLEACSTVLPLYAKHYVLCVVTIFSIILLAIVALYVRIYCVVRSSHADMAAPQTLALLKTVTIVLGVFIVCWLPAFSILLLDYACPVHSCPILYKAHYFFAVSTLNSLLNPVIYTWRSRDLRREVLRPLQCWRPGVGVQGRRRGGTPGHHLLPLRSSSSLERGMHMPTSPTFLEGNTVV

[27] = target: T4, Bcl-2-like protein 10 (Homo sapiens, UniProt Q9HD36); test: Bcl-B/TR3 peptide binding disruption – biochemical, fluorescence polarization, FITC-TR3 peptide, selectivity assay for Bfl-1 inhibitor project, primary screen (AID 748);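 also: fluorescence polarization from a fluorescein-labelled TR3 peptide binding purified Bcl-B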
T4 sequence (Q9HD36 whole entry): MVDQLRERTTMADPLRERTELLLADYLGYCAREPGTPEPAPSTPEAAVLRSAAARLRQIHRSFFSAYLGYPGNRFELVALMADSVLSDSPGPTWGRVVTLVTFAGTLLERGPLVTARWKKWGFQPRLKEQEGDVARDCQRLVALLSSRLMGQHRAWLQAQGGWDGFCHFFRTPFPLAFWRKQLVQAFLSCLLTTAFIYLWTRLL

[28] = target: Protein Tat (Human immunodeficiency virus type 1 group M subtype B (isolate HXB2)(HIV-1), UniProt P04608); format: functional;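 also: tat binding to TAR RNA read out by fluorescence polarization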
Sequence of Protein Tat (P04608 whole entry): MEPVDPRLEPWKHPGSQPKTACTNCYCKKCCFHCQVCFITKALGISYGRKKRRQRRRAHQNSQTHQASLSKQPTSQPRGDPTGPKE

[29] = Late stage results for the probe development effort to identify inhibitors of Plasmodium falciparum gametocytes: Luminescence-based cell-based high throughput dose response assay to identify inhibitors of viability of late stage Plasmodium falciparum gametocytes.; format: functional

Sequence of Glutathione-S-transferase (Q26513 whole entry): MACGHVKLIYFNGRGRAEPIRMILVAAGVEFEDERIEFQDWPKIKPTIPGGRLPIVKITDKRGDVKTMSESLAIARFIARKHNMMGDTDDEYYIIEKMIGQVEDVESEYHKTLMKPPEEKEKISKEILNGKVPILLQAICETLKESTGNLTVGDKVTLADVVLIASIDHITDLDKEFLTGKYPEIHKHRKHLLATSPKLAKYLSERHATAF

O=C(O)c1ccc(S(=O)(=O)c2ccc([N+](=O)[O-])cc2[N+](=O)[O-])cc1
IC50 [1]: > 100 µM (active)

CSc1nc2ccccc2n1CCOc1cc(C)ccc1C(C)C
AC50 [2]: > 52 µM (inactive)
AC50 [3]: 41.6 µM (active)

Cn1c(NC(=O)c2ccccn2)nc2ccccc21
AbsAC90 [4]: 274.28 µM

CCCNC(=O)N1[C@H](C#N)[C@@H](c2ccccc2-c2cccc(C)c2)[C@@H]1CO
AC50 [5]: 10.2 µM (active)

COc1ccc(NC(=O)N2CCCCN3[C@H](CO)[C@@H](c4ccc(C#Cc5ccccc5)cc4)[C@H]3C2)cc1
AC50 [6]: 4.04 µM (active)

C[C@@H]1CN([C@@H](C)CO)C(=O)c2cccc(NC(=O)Nc3ccc(C(F)(F)F)cc3)c2O[C@H]1CN(C)C(=O)Nc1cccc2ccccc12
AC50 [7]: > 70 µM (inactive)
AC50 [8]: > 52 µM (inactive)
AC50 [9]: 7.88 µM (active)
AC50 [10]: > 39 µM (inactive)

[N-]=[N+]=CC(=O)OC[C@H](N)C(=O)O [AZASERINE]
IC50 [11]: > 20 µM (inactive)
IC50 [12]: > 20 µM (inactive)
IC50 [13]: > 20 µM (inactive)
IC50 [14]: > 20 µM (inactive)
IC50 [15]: > 20 µM (inactive)
IC50 [16]: > 20 µM (inactive)

CC1=NN(c2ccc(Cl)c(C(=O)O)c2)C(=O)/C1=C\c1ccc(-c2ccc(C(=O)O)cc2)o1
AC50 [17]: 484 nM (active)
IC50 [18]: 94.1 µM (active)
EC50 [19]: 400 nM (active)
IC50 [20]: 2.41 µM (active)
IC50 [21]: 19.4 µM (active)

C[C@@H](O)C#Cc1ccc2c(c1)O[C@@H](CN(C)Cc1ccc(-c3cccc(Cl)c3)cc1)[C@@H](C)CN([C@@H](C)CO)S2(=O)=O
AC50 [22]: 3.58 µM (active)
AC50 [23]: 2.54 µM (active)
AC50 [24]: 51.5 µM (active)

CCOc1cccc(OCCCCn2ccnc2)c1
IC50 [25]: > 64 µM (inactive)
EC50 [26]: > 50 µM (not active)

O=C1c2ccccc2CC1Sc1nnc(-c2ccccn2)o1 (centres undefined)
IC50 [27]: > 100 µM (inactive)
IC50 [28]: > 100 µM (active)

O=C(Nc1nncs1)c1cc(-c2ccccc2)nn1-c1ccccc1
IC50 [29]: > 37.2 µM (inactive)
